From ChEMBL document CHEMBL1201862, “PubChem BioAssay data set” (2004)
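Step 1: Grow cells in 96-well plates. Step 2: Expose to compound for 48 hours at 5 concentrations. Step 3: Interpolate endpoints linearly; if unreached, use highest concentration. GI50 = concentration required for 50% inhibition of growth.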 The source made the active and inactive calls. No stated cut-off is given here; in the data, active = GI50 up to about 1.1 µM and inactive = higher.

Key:
Assay in all cases: DTP human tumour cell line panel, 48 h
[1] = tested on: A498
[2] = tested on: A549
[3] = tested on: CAKI-1
[4] = tested on: CCRF-CEM
[5] = tested on: COLO 205
[6] = tested on: DLD-1
[7] = tested on: DMS-273
[8] = tested on: EKVX
[9] = tested on: HCC 2998
[10] = tested on: HCT-116
[11] = tested on: HCT-15
[12] = tested on: HL-60
[13] = tested on: HOP-18
[14] = tested on: HOP-62
[15] = tested on: HOP-92
[16] = tested on: HT-29
[17] = tested on: IGROV-1
[18] = tested on: K562
[19] = tested on: KM-20L2
[20] = tested on: KM12
[21] = tested on: LOX IMVI
[22] = tested on: M19-MEL
[23] = tested on: MCF7
[24] = tested on: MOLT-4
[25] = tested on: Malme-3M
[26] = tested on: NCI-H226
[27] = tested on: NCI-H23
[28] = tested on: NCI-H460
[29] = tested on: NCI-H522
[30] = tested on: NCI/ADR-RES
[31] = tested on: OVCAR-3
[32] = tested on: OVCAR-4
[33] = tested on: OVCAR-5
[34] = tested on: OVCAR-8
[35] = tested on: RPMI-8226
[36] = tested on: RXF 393
[37] = tested on: SF-268
[38] = tested on: SF-295
[39] = tested on: SF-539
[40] = tested on: SK-MEL-28
[41] = tested on: SK-MEL-2
[42] = tested on: SK-MEL-5
[43] = tested on: SK-OV-3
[44] = tested on: SN12C
[45] = tested on: SNB-19
[46] = tested on: SNB-75
[47] = tested on: SNB-78
[48] = tested on: SW-620
[49] = tested on: U-251
[50] = tested on: UACC-257
[51] = tested on: UACC-62
[52] = tested on: UO-31
[53] = tested on: XF498
[54] = tested on: 786-0
[55] = tested on: ACHN
[56] = tested on: DMS-114
[57] = tested on: LXFL 529
[58] = tested on: M14
[59] = tested on: SR
[60] = tested on: TK-10

For `CCCCS(=O)(=O)Nc1ccc(Nc2c3ccccc3nc3ccccc23)c(OC)c1`, which GI50 [1] is on record?
The GI50 was 2.05 µM (inactive).

What about the GI50 [2] of the same molecule?
Its GI50 is 0.232 µM (active).

And the GI50 [3]?
Its GI50 is 0.574 µM (active).

And the GI50 [4]?
The GI50 was 0.338 µM (active).

And the GI50 [5]?
The GI50 was 5.78 µM (inactive).

And the GI50 [6]?
Its GI50 is 7.6 µM (inactive).

And the GI50 [7]?
The GI50 was 0.395 µM (active).

And the GI50 [8]?
The GI50 was 1.91 µM (inactive).

What about the GI50 [9] of the same molecule?
The GI50 was 3.21 µM (inactive).

What about the GI50 [10] of the same molecule?
The GI50 was 1.73 µM (inactive).

And the GI50 [11]?
The GI50 was 1.71 µM.

And the GI50 [12]?
Its GI50 is 0.183 µM (active).

And the GI50 [13]?
The GI50 was 7.52 µM (inactive).

And the GI50 [14]?
Its GI50 is 1.86 µM (inactive).

What about the GI50 [15] of the same molecule?
The GI50 was 2.15 µM (inactive).

And the GI50 [16]?
The GI50 was 1.67 µM (inactive).

What about the GI50 [17] of the same molecule?
Its GI50 is 5.57 µM (inactive).

What about the GI50 [18] of the same molecule?
Its GI50 is 2.51 µM (inactive).

What about the GI50 [19] of the same molecule?
Its GI50 is 3.14 µM (inactive).

What about the GI50 [20] of the same molecule?
Its GI50 is 3.45 µM (inactive).

And the GI50 [21]?
The GI50 was 1.26 µM (inactive).

What about the GI50 [22] of the same molecule?
The GI50 was 4.61 µM (inactive).

What about the GI50 [23] of the same molecule?
Its GI50 is 1.13 µM (inactive).

And the GI50 [24]?
Its GI50 is 0.0718 µM (active).

And the GI50 [25]?
Its GI50 is 2.21 µM (inactive).

And the GI50 [26]?
The GI50 was 0.881 µM (active).

What about the GI50 [27] of the same molecule?
Its GI50 is 1.11 µM (active).

And the GI50 [28]?
Its GI50 is 0.0863 µM (active).

What about the GI50 [29] of the same molecule?
Its GI50 is 5.33 µM (inactive).

And the GI50 [30]?
The GI50 was 5.36 µM (inactive).

What about the GI50 [31] of the same molecule?
Its GI50 is 6.98 µM (inactive).

What about the GI50 [32] of the same molecule?
The GI50 was 5.6 µM (inactive).

And the GI50 [33]?
The GI50 was 13.7 µM (inactive).

And the GI50 [34]?
The GI50 was 2 µM (inactive).

And the GI50 [35]?
Its GI50 is 1.74 µM (inactive).

What about the GI50 [36] of the same molecule?
Its GI50 is 4.39 µM (inactive).

What about the GI50 [37] of the same molecule?
Its GI50 is 2.25 µM (inactive).

What about the GI50 [38] of the same molecule?
The GI50 was 0.902 µM (active).

And the GI50 [39]?
The GI50 was 1.08 µM (active).

What about the GI50 [40] of the same molecule?
Its GI50 is 5.74 µM (inactive).

What about the GI50 [41] of the same molecule?
Its GI50 is 16.9 µM (inactive).

What about the GI50 [42] of the same molecule?
The GI50 was 5.2 µM (inactive).

What about the GI50 [43] of the same molecule?
The GI50 was 5.07 µM (inactive).

And the GI50 [44]?
Its GI50 is 0.828 µM (active).

What about the GI50 [45] of the same molecule?
The GI50 was 1.94 µM (inactive).

And the GI50 [46]?
Its GI50 is 1.52 µM (inactive).

What about the GI50 [47] of the same molecule?
The GI50 was 5.5 µM (inactive).

And the GI50 [48]?
Its GI50 is 0.675 µM (active).

What about the GI50 [49] of the same molecule?
Its GI50 is 0.773 µM (active).

What about the GI50 [50] of the same molecule?
Its GI50 is 6 µM (inactive).

And the GI50 [51]?
Its GI50 is 1.78 µM (inactive).

And the GI50 [52]?
The GI50 was 1.5 µM (inactive).

And the GI50 [53]?
Its GI50 is 2.19 µM (inactive).

Which results are given for `CC1CCC2(OCCO2)[C@]2(C)CC(O)C(=O)C=C12` (stereo not given in full)?
GI50 [54]: > 100 µM (inactive); GI50 [2]: > 100 µM (inactive); GI50 [55]: > 100 µM (inactive); GI50 [4]: > 100 µM (inactive); GI50 [5]: > 100 µM (inactive); GI50 [6]: > 100 µM (inactive); GI50 [56]: > 100 µM (inactive); GI50 [7]: > 100 µM (inactive); GI50 [8]: > 100 µM (inactive); GI50 [9]: > 100 µM (inactive); GI50 [11]: > 100 µM; GI50 [12]: > 100 µM (inactive); GI50 [13]: > 100 µM (inactive); GI50 [15]: > 100 µM (inactive); GI50 [16]: > 100 µM (inactive); GI50 [17]: > 100 µM (inactive); GI50 [18]: > 100 µM (inactive); GI50 [20]: > 100 µM (inactive); GI50 [57]: > 100 µM (inactive); GI50 [58]: > 100 µM (inactive); GI50 [22]: > 100 µM (inactive); GI50 [24]: > 100 µM (inactive); GI50 [25]: > 100 µM (inactive); GI50 [26]: > 100 µM (inactive); GI50 [27]: > 100 µM (inactive); GI50 [28]: > 100 µM (inactive); GI50 [29]: > 100 µM (inactive); GI50 [31]: > 100 µM (inactive); GI50 [33]: > 100 µM (inactive); GI50 [34]: > 100 µM (inactive); GI50 [35]: > 100 µM (inactive); GI50 [36]: > 100 µM (inactive); GI50 [37]: > 100 µM (inactive); GI50 [38]: > 100 µM (inactive); GI50 [39]: > 100 µM (inactive); GI50 [40]: > 100 µM (inactive); GI50 [41]: > 100 µM (inactive); GI50 [42]: > 100 µM (inactive); GI50 [43]: > 100 µM (inactive); GI50 [44]: > 100 µM (inactive); GI50 [45]: > 100 µM (inactive); GI50 [59]: > 100 µM (inactive); GI50 [48]: > 100 µM (inactive); GI50 [60]: > 100 µM (inactive); GI50 [49]: > 100 µM (inactive); GI50 [50]: > 100 µM (inactive); GI50 [52]: > 100 µM (inactive); GI50 [53]: > 100 µM (inactive)

With `Nc1nc(O)c2ncn(C3OC(CO)C(O)C3O)c2n1` (stereo not given) as the molecule, how does the GI50 [1] read?
Its GI50 is 3.81 µM (inactive).

What about the GI50 [3] of the same molecule?
The GI50 was 77.1 µM (inactive).

And the GI50 [4]?
Its GI50 is 23.9 µM (inactive).

What about the GI50 [5] of the same molecule?
The GI50 was 57 µM (inactive).

What about the GI50 [6] of the same molecule?
Its GI50 is 65.3 µM (inactive).

What about the GI50 [56] of the same molecule?
Its GI50 is 6.15 µM (inactive).

And the GI50 [7]?
The GI50 was 58.7 µM (inactive).

What about the GI50 [8] of the same molecule?
Its GI50 is 10.2 µM (inactive).

What about the GI50 [9] of the same molecule?
Its GI50 is 17.1 µM (inactive).

And the GI50 [10]?
The GI50 was 68.1 µM (inactive).

What about the GI50 [12] of the same molecule?
The GI50 was 37.6 µM (inactive).

And the GI50 [13]?
Its GI50 is 49.8 µM (inactive).

What about the GI50 [14] of the same molecule?
The GI50 was 8.63 µM (inactive).

What about the GI50 [16] of the same molecule?
Its GI50 is 10.9 µM (inactive).

What about the GI50 [17] of the same molecule?
Its GI50 is > 77.4 µM (inactive).

And the GI50 [18]?
The GI50 was 81.7 µM (inactive).

What about the GI50 [19] of the same molecule?
Its GI50 is 16.8 µM (inactive).

And the GI50 [20]?
The GI50 was 80 µM (inactive).

And the GI50 [21]?
The GI50 was 52.5 µM (inactive).

What about the GI50 [22] of the same molecule?
Its GI50 is 16 µM (inactive).

And the GI50 [23]?
The GI50 was 33.8 µM (inactive).

What about the GI50 [24] of the same molecule?
Its GI50 is 48.2 µM (inactive).

What about the GI50 [26] of the same molecule?
The GI50 was 72.6 µM (inactive).

And the GI50 [27]?
Its GI50 is 17.4 µM (inactive).

What about the GI50 [29] of the same molecule?
The GI50 was 41.9 µM (inactive).

What about the GI50 [30] of the same molecule?
The GI50 was 18.4 µM (inactive).

And the GI50 [31]?
The GI50 was 23.2 µM (inactive).

And the GI50 [32]?
The GI50 was 15.9 µM (inactive).

What about the GI50 [33] of the same molecule?
The GI50 was 111 µM (inactive).

And the GI50 [36]?
Its GI50 is 6.84 µM (inactive).

And the GI50 [37]?
Its GI50 is 74.8 µM (inactive).

What about the GI50 [38] of the same molecule?
The GI50 was 71.6 µM (inactive).

What about the GI50 [39] of the same molecule?
Its GI50 is 13.8 µM (inactive).

And the GI50 [40]?
The GI50 was 90.8 µM (inactive).

And the GI50 [41]?
Its GI50 is 71.1 µM (inactive).

And the GI50 [42]?
The GI50 was 53.6 µM (inactive).

And the GI50 [43]?
Its GI50 is 95.7 µM (inactive).

What about the GI50 [44] of the same molecule?
The GI50 was 79.8 µM (inactive).

And the GI50 [46]?
The GI50 was 15.4 µM (inactive).

And the GI50 [47]?
The GI50 was 95.3 µM (inactive).

What about the GI50 [48] of the same molecule?
Its GI50 is 76.7 µM (inactive).

And the GI50 [49]?
Its GI50 is 16.1 µM (inactive).

What about the GI50 [51] of the same molecule?
The GI50 was 13.3 µM (inactive).

What about the GI50 [52] of the same molecule?
The GI50 was 63.7 µM (inactive).
